Data reported in patent publication US20230295234A1, “ANTIMICROBIAL PEPTIDOMIMETICS” (SPEXIS AG, priority 2020, published 2023).
Bridge positions count the residues as written; N and C are the ends. Square brackets hold non-standard residues; d marks the D form. Peptide text beside a SMILES is read from it. * marks the point of attachment. Pro(4R-NH2) = N[C@H]1CN[C@H](C(=O)O)C1; X2 = N=C(N)N1C[C@H](O)C[C@H]1C(=O)*; Gly(N-2-aminoethyl) = NCCNCC(=O)O; Gly(N(CH2)3NH2) = NCCCNCC(=O)O; Pen = CC(C)(S)[C@H](N)C(=O)O; dDab = NCC[C@@H](N)C(=O)O; Dab = NCC[C@H](N)C(=O)O; Nlys = NCCCCNCC(=O)O

Experiments:
[1] = test system: Escherichia coli ATCC 25922; settings: ATCC 25922
Summary of the method: (§1)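 Broth microdilution; cation-adjusted MHII; inoculum ~5×10^5 CFU/mL from 0.5 McFarland saline suspension; peptide two-fold serial dilutions; polysorbate 80 0.002% final; peptide stock 1 mg/mL in water.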

[2] = test system: Escherichia coli MCR-1 Af 45; settings: MCR-1 Af 45
Summary of the method: as §1

[3] = test system: Klebsiella pneumoniae SSI3010; settings: SSI3010
Summary of the method: as §1

[4] = test system: human red blood cells (hRBC); test: Hemolysis of human red blood cells; assay type: cell-based; settings: red cells of human, 1 h
Summary of the method: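 PBS-washed human red blood cells (20% v/v) were incubated with peptide at 200 μg/mL for 1 h at 37 °C with shaking. Supernatant OD was read at 540 nm after 8-fold dilution. Hemolysis is expressed as percent of the water control.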

Escherichia coli ATCC 25922 MIC [1] [µg/mL] | Escherichia coli MCR-1 Af 45 MIC [2] [µg/mL] | Klebsiella pneumoniae SSI3010 MIC [3] [µg/mL] | SMILES | Hemolysis at 0.2 g/L [4] [%]
0.125 | 0.0625 | 0.25 | CC[C@H](C)[C@H](NC(=O)CN(CCCCN)C(=O)[C@@H](NC(=O)CNCCCCN)C(C)C)C(=O)N[C@H](C(=O)N[C@@H](Cc1ccc(O)cc1)C(=O)N[C@@H]1C(=O)N[C@@H](CC(N)=O)C(=O)N[C@@H](CCCNC(=N)N)C(=O)N[C@@H](CCN)C(=O)N[C@@H]([C@@H](C)O)C(=O)N[C@H](CCN)C(=O)N[C@@H](CCCCN)C(=O)N[C@H](C(=O)N[C@@H](CCN)C(=O)N[C@@H](CCCNC(=N)N)C(=O)N[C@@H](Cc2ccc(O)cc2)C(=O)O)CSSC1(C)C)[C@@H](C)CC [Example 31, Nlys-Val-Nlys-Ile-Ile-Tyr-Pen-Asn-Arg-Dab-Thr-^DDab-Lys-Cys-Dab-Arg-Tyr] (H-[Nlys]V[Nlys]IIY[Pen]NR[Dab]T[dDab]KC[Dab]RY-OH; disulfide 7-14) | 0
0.125 | 0.0625 | 0.125 | CC[C@H](C)[C@H](NC(=O)CN(CCCN)C(=O)[C@@H](NC(=O)CNCCCN)C(C)C)C(=O)N[C@H](C(=O)N[C@@H](Cc1ccc(O)cc1)C(=O)N[C@@H]1C(=O)N[C@@H](CC(N)=O)C(=O)N[C@@H](CCCNC(=N)N)C(=O)N[C@@H](CCN)C(=O)N[C@@H]([C@@H](C)O)C(=O)N[C@H](CCN)C(=O)N[C@@H](CCCCN)C(=O)N[C@H](C(=O)N[C@@H](CCN)C(=O)N[C@@H](CCCNC(=N)N)C(=O)N[C@@H](Cc2ccc(O)cc2)C(=O)O)CSSC1(C)C)[C@@H](C)CC [Example 32, Norn-Val-Norn-Ile-Ile-Tyr-Pen-Asn-Arg-Dab-Thr-^DDab-Lys-Cys-Dab-Arg-Tyr] (H-[Gly(N(CH2)3NH2)]V[Gly(N(CH2)3NH2)]IIY[Pen]NR[Dab]T[dDab]KC[Dab]RY-OH; disulfide 7-14) | 0
0.125 | 0.125 | 0.125 | CC[C@H](C)[C@H](NC(=O)[C@@H]1C[C@@H](O)CN1C(=O)[C@@H](NC(=O)CNCCCCN)C(C)C)C(=O)N[C@H](C(=O)N[C@@H](Cc1ccc(O)cc1)C(=O)N[C@@H]1C(=O)N[C@@H](CC(N)=O)C(=O)N[C@@H](CCCNC(=N)N)C(=O)N[C@@H](CCN)C(=O)N[C@@H]([C@@H](C)O)C(=O)N[C@H](CCN)C(=O)N[C@@H](CCCCN)C(=O)N[C@H](C(=O)N[C@@H](CCN)C(=O)N[C@@H](CCCNC(=N)N)C(=O)N[C@@H](Cc2ccc(O)cc2)C(=O)O)CSSC1(C)C)[C@@H](C)O [Example 34, Nlys-Val-Hyp-Ile-Thr-Tyr-Pen-Asn-Arg-Dab-Thr-^DDab-Lys-Cys-Dab-Arg-Tyr] (HELM PEPTIDE1{[NCCCCNCC(=O)[*:2]].V.[Hyp].I.T.Y.[Pen].N.R.[Dab].T.[NCC[C@@H](N[*:1])C(=O)[*:2]].K.C.[Dab].R.Y}$PEPTIDE1,PEPTIDE1,7:R3-14:R3$$$V2.0) | 0
0.25 | 0.0625 | 0.25 | CC[C@H](C)[C@H](NC(=O)CN(CCN)C(=O)[C@@H](NC(=O)[C@@H]1C[C@@H](O)CN1C(=N)N)C(C)C)C(=O)N[C@H](C(=O)N[C@@H](Cc1ccc(O)cc1)C(=O)N[C@@H]1C(=O)N[C@@H](CC(N)=O)C(=O)N[C@@H](CCCNC(=N)N)C(=O)N[C@@H](CCN)C(=O)N[C@@H]([C@@H](C)O)C(=O)N[C@H](CCN)C(=O)N[C@@H](CCCCN)C(=O)N[C@H](C(=O)N[C@@H](CCN)C(=O)N[C@@H](CCCNC(=N)N)C(=O)N[C@@H](Cc2ccc(O)cc2)C(=O)O)CSSC1(C)C)[C@@H](C)O [Example 37, Gua-Hyp-Val-Ndab-Ile-Thr-Tyr-Pen-Asn-Arg-Dab-Thr-^DDab-Lys-Cys-Dab-Arg-Tyr] (X2-V[Gly(N-2-aminoethyl)]ITY[Pen]NR[Dab]T[dDab]KC[Dab]RY-OH; disulfide 6-13) | 0
0.25 | 0.0625 | 0.125 | CC[C@H](C)[C@H](NC(=O)[C@@H]1C[C@@H](O)CN1C(=O)[C@@H](NC(=O)[C@@H]1C[C@@H](N)CN1C(=N)N)C(C)C)C(=O)N[C@H](C(=O)N[C@@H](Cc1ccc(O)cc1)C(=O)N[C@@H]1C(=O)N[C@@H](CC(N)=O)C(=O)N[C@@H](CCCNC(=N)N)C(=O)N[C@@H](CCN)C(=O)N[C@@H]([C@@H](C)O)C(=O)N[C@H](CCN)C(=O)N[C@@H](CCCCN)C(=O)N[C@H](C(=O)N[C@@H](CCN)C(=O)N[C@@H](CCCNC(=N)N)C(=O)N[C@@H](Cc2ccc(O)cc2)C(=O)O)CSSC1(C)C)[C@@H](C)O [Example 38, Gua-Pro((4R)NH2)-Val-Hyp-Ile-Thr-Tyr-Pen-Asn-Arg-Dab-Thr-^DDab-Lys-Cys-Dab-Arg-Tyr] (HELM PEPTIDE1{[N=C(N)N1C[C@H](N)C[C@H]1C(=O)[*:2]].V.[Hyp].I.T.Y.[Pen].N.R.[Dab].T.[NCC[C@@H](N[*:1])C(=O)[*:2]].K.C.[Dab].R.Y}$PEPTIDE1,PEPTIDE1,7:R3-14:R3$$$V2.0) | 0

The remaining lines, values behind:

SMILES | Escherichia coli ATCC 25922 MIC [1] [µg/mL] | Escherichia coli MCR-1 Af 45 MIC [2] [µg/mL] | Klebsiella pneumoniae SSI3010 MIC [3] [µg/mL] | Hemolysis at 0.2 g/L [4] [%]
CC[C@H](C)[C@H](NC(=O)[C@@H]1C[C@@H](O)CN1C(=O)[C@@H](NC(=O)CNCCCN)C(C)C)C(=O)N[C@H](C(=O)N[C@@H](Cc1ccc(O)cc1)C(=O)N[C@@H]1C(=O)N[C@@H](CC(N)=O)C(=O)N[C@@H](CCCNC(=N)N)C(=O)N[C@@H](CCN)C(=O)N[C@@H]([C@@H](C)O)C(=O)N[C@H](CCN)C(=O)N[C@@H](CCCCN)C(=O)N[C@H](C(=O)N[C@@H](CCN)C(=O)N[C@@H](CCCNC(=N)N)C(=O)N[C@@H](Cc2ccc(O)cc2)C(=O)O)CSSC1(C)C)[C@@H](C)O [Example 33, Norn-Val-Hyp-Ile-Thr-Tyr-Pen-Asn-Arg-Dab-Thr-^DDab-Lys-Cys-Dab-Arg-Tyr] (HELM PEPTIDE1{[NCCCNCC(=O)[*:2]].V.[Hyp].I.T.Y.[Pen].N.R.[Dab].T.[NCC[C@@H](N[*:1])C(=O)[*:2]].K.C.[Dab].R.Y}$PEPTIDE1,PEPTIDE1,7:R3-14:R3$$$V2.0) | 0.125 | 0.125 | 0.25 | 0
CC[C@H](C)[C@H](NC(=O)[C@@H]1C[C@@H](O)CN1C(=O)[C@@H](NC(=O)[C@@H]1C[C@@H](O)CN1C(=N)N)C(C)C)C(=O)N[C@H](C(=O)N[C@@H](Cc1ccc(O)cc1)C(=O)N[C@@H]1C(=O)N[C@@H](CC(N)=O)C(=O)N[C@@H](CCCNC(=N)N)C(=O)N[C@@H](CCN)C(=O)N[C@@H]([C@@H](C)O)C(=O)N[C@H](CCN)C(=O)N[C@@H](CCCCN)C(=O)N[C@H](C(=O)N[C@@H](CCN)C(=O)N[C@@H](CCCNC(=N)N)C(=O)N[C@@H](Cc2ccc(O)cc2)C(=O)O)CSSC1(C)C)[C@@H](C)O [Example 35, Gua-Hyp-Val-Hyp-Ile-Thr-Tyr-Pen-Asn-Arg-Dab-Thr-^DDab-Lys-Cys-Dab-Arg-Tyr] (HELM PEPTIDE1{[N=C(N)N1C[C@H](O)C[C@H]1C(=O)[*:2]].V.[Hyp].I.T.Y.[Pen].N.R.[Dab].T.[NCC[C@@H](N[*:1])C(=O)[*:2]].K.C.[Dab].R.Y}$PEPTIDE1,PEPTIDE1,7:R3-14:R3$$$V2.0) | 0.125 | 0.125 | 0.25 | 0
CC[C@H](C)[C@H](NC(=O)[C@@H]1C[C@@H](N)CN1C(=O)[C@@H](NC(=O)[C@@H]1C[C@@H](O)CN1C(=N)N)C(C)C)C(=O)N[C@H](C(=O)N[C@@H](Cc1ccc(O)cc1)C(=O)N[C@@H]1C(=O)N[C@@H](CC(N)=O)C(=O)N[C@@H](CCCNC(=N)N)C(=O)N[C@@H](CCN)C(=O)N[C@@H]([C@@H](C)O)C(=O)N[C@H](CCN)C(=O)N[C@@H](CCCCN)C(=O)N[C@H](C(=O)N[C@@H](CCN)C(=O)N[C@@H](CCCNC(=N)N)C(=O)N[C@@H](Cc2ccc(O)cc2)C(=O)O)CSSC1(C)C)[C@@H](C)O [Example 36, Gua-Hyp-Val-Pro((4R)NH2)-Ile-Thr-Tyr-Pen-Asn-Arg-^Dab-Thr-^DDab-Lys-Cys-Dab-Arg-Tyr] (X2-V[Pro(4R-NH2)]ITY[Pen]NR[Dab]T[dDab]KC[Dab]RY-OH; disulfide 6-13) | 0.125 | 0.0625 | 0.125 | 0
CCCC[C@H](NC(=O)[C@H](CCCNC(=N)N)NC(=O)[C@H](CCN)NC(=O)[C@@H]1CSSC(C)(C)[C@H](NC(=O)[C@H](Cc2ccc(O)cc2)NC(=O)[C@@H](NC(=O)[C@@H](NC(=O)[C@@H]2CCCN2C(=O)[C@@H](NC(=O)CN(CCN)CCN)C(C)C)[C@@H](C)CC)[C@@H](C)CC)C(=O)N[C@@H](CC(N)=O)C(=O)N[C@@H](CCCNC(=N)N)C(=O)N[C@@H](CCCNC(=N)N)C(=O)N[C@@H]([C@@H](C)O)C(=O)N[C@H](CCN)C(=O)N[C@@H](CCCCN)C(=O)N1)C(=O)O [Example 39, Bis(2aminoethyl)Gly-Val-Pro-Ile-Ile-Tyr-Pen-Asn-Arg-Arg-Thr-^DDab-Lys-Cys-Dab-Arg-Nle] (HELM PEPTIDE1{[NCCN(CCN)CC(=O)[*:2]].V.P.I.I.Y.[Pen].N.R.R.T.[NCC[C@@H](N[*:1])C(=O)[*:2]].K.C.[Dab].R.[Nle]}$PEPTIDE1,PEPTIDE1,7:R3-14:R3$$$V2.0) | 0.0625 | ≤0.03125 | 0.0625 | 0
